Structures are written as SMILES.

Common to all, as to assay type: binding
Assay [1] deals with T1, PCSK9 (Homo sapiens, UniProt Q8NBP7).
T1 construct: biotin (biotinylated); purchased
The assay can be described thus: PCSK9 Alexa FRET Standard TR-FRET assay. The following applies: biotinylated PCSK9 0.5 nM, 20 nM AF cyclic peptide Reagent A; Ki calculated from IC50 and KD of AF peptide; read-out: Alexa FRET Stdt TR-FRET. The method, then: (§1) The following is a description of the assays used to determine activity of compounds of the invention, and any comparator compounds reported, toward PCSK9 antagonism. Biotinylated PCSK9 was obtained commercially.
A separate solution containing 40 nM of the AlexaFluor tagged cyclic peptide is made in the same buffer system. An Echo is used to transfer 0.750 ul of compound to an assay plate followed by the addition of 15 ul of PCSK9+Stept-Eu and 15 ul of AF peptide. […] The reaction is incubated at room temperature for at least two hours prior to fluorescence measurements using an Envision Multilabel Reader. IC50 values are determined by fitting data to a sigmoidal dose-response curve using nonlinear regression. Ki is then calculated from the Ic50 and the KD of AF cyclic peptide. Counts (B-counts) of the europium-labeled PCSK9 are followed to observe if compounds are adversely PCSK9. A fall off of the B-counts likely indicates a false positive of inhibition. Data from this procedure is reported as “A=‘numerical value’ (nanomolar)”

Assay [2] has as its target T1, PCSK9. The assay can be described thus: PCSK9 Alexa FRET Plus TR-FRET assay. The note with it: biotinylated PCSK9 0.5 nM, 960 nM AF cyclic peptide Reagent B; Ki calculated from IC50 and KD of AF peptide. As to the method:
as §1
An Echo is used to transfer 0.075 ul of compound plus 0.675 ul of DMSO to each well of an assay plate followed by the addition of 15 ul of PCSK9+Stept-Eu and 15 ul of AF peptide. […] The reaction is incubated at room temperature for at least two hours prior to fluorescence measurements using an Envision Multilabel Reader. IC50 values are determined by fitting data to a sigmoidal dose-response curve using nonlinear regression. Ki is then calculated from the Ic50 and the KD of AF cyclic peptide. Counts (B-counts) of the europium-labeled PCSK9 are followed to observe if compounds are adversely affecting PCSK9. […] Data from this procedure is reported as “P=‘numerical value’ (nanomolar)”

The target in assay [3] is T1, PCSK9. Put plainly: PCSK9 Alexa FRET Ultra TR-FRET assay. The note with it: Ki Ultra; biotinylated PCSK9 0.5 nM, 960 nM AF cyclic peptide; Ki calculated from IC50 and KD of AF peptide; read-out: Alexa FRET Ultra TR-FRET. As to the method: The following is a description of the assays used to determine activity of compounds of the invention, and any comparator compounds reported, toward PCSK9 antagonism. Biotinylated PCSK9 was obtained commercially. […] An Echo is used to transfer 0.015 ul of compound plus 0.735 ul of DMSO to each well of an assay plate followed by the addition of 15 ul of PCSK9+Stept-Eu and 15 ul of AF peptide. […] The reaction is incubated at room temperature for at least two hours prior to fluorescence measurements using an Envision Multilabel Reader. IC50 values are determined by fitting data to a sigmoidal dose-response curve using nonlinear regression. Ki is then calculated from the Ic50 and the KD of AF cyclic peptide. Counts (B-counts) of the europium-labeled PCSK9 are followed to observe if compounds are adversely affecting PCSK9. […] Data from this procedure is reported as “Ki Ultra=‘numerical value’ (data reported is nanomolar)”

T1 sequence (Q8NBP7 153-692): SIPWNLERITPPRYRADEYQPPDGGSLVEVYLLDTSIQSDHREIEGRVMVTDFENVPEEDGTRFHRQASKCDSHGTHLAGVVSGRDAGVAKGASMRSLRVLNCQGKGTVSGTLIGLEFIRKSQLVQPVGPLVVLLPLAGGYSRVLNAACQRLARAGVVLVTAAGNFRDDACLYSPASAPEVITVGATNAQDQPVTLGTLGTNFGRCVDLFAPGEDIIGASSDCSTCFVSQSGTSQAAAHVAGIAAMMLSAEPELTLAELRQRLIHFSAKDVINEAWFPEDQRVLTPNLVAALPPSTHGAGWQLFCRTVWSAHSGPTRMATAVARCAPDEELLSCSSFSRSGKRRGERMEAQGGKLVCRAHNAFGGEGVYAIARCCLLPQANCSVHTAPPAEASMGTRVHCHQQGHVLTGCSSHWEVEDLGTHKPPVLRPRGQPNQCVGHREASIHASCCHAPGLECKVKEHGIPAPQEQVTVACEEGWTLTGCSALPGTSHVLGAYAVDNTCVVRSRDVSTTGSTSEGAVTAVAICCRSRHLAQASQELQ

Take `COc1ccc(C[C@@H]2NC(=O)[C@H]([C@@H](C)O)NC(=O)[C@@H]3[C@@H]4CCN3C(=O)[C@@H]3Cc5cn(c6ccc(F)cc56)CCCCCCN(Cc5ccc(cc5)CCNC(=O)[C@]5(C)CCCN5C2=O)C(=O)CCOCCC(=O)N[C@H](CNC(=O)CCOCCOCC[N+](C)(C)CCNC(=O)COCCOCCNC(=O)COCCOCCNC(=O)CC[C@H](NC(=O)CC[C@H](NC(=O)CCCCCCCCCCCCCCC(=O)O)C(=O)O)C(=O)O)C(=O)N[C@@H](Cc2cccc(c2)CNC(=O)CO4)C(=O)N3)cc1` [Example 12]: the figures for the Ki at PCSK9 [1], on PCSK9 [2] and at PCSK9 [3] were < 1260 pM, < 6 pM and 2 pM, respectively.

These data come from patent US12577259B2, “PCSK9 antagonist compounds” (MERCK SHARP & DOHME LLC, priority 2019, dated 2026).
